Columns and labels:
inactive Stat3 monomer = biological target: T1, inactive Stat3 monomer (Homo sapiens, UniProt P40763); experiment: Inactive STAT monomer added to activated Stat3 before EMSA (titration of compound); type: binding; conditions: monomer added to activated Stat3, pre-incubated with compound 30 min
T1 construct: made in house; host or cells: Sf-9 insect cells infected with recombinant baculovirus
Description: The interaction of PLATINUM-401 with Stat3 protein is independent of the activation status of the protein.

inactive Stat5 monomer = experiment: as above; type: binding
Cyclin D1 [1] = experiment: Cyclin D1 detection, in situ and Western blot; type: cell-based, human; conditions: MDA-MB-435, 48 h
Experimental: (§1) FIGS. 8A and 8B. Inhibition of Cyclin D1 and Bcl-xL induction by PLATINUM-401. Viral Src-transformed fibroblasts (NIH3T3/v-Src) and human breast cancer cell line MDA-MB-435 that contain constitutively-activated Stat3 were treated with or without platinum complex for 48 h. Cells were processed for immunohistochemistry, or cell lysates were prepared from cells and subjected to 5% PAGE and Western blot analysis, as indicated in “Materials and Methods.” (FIG. 8A) Detection of Cyclin D1; (FIG. 8B) Detection of Bcl-xL. Positions of Cyclin D1 and Bcl-xL proteins are shown. Beta-actin levels are shown for normalizing for equal total protein. Data are representative of 3 independent determinations.
(§2) Western blot—Whole-cell lysates were prepared in boiling sodium dodecyl sulfate (SDS) sample-loading buffer to extract total proteins from the cytoplasm and nucleus. Equivalent amounts of total cellular protein were electrophoresed on an SDS-10% polyacrylamide gel and transferred onto nitrocellulose membranes. Probing of nitrocellulose membranes with primary antibodies and detection of horseradish peroxidase-conjugated secondary antibodies by enhanced chemiluminescence (Amersham, Piscataway, N.J.) were performed as previously described (Garcia et al., 2001; Turkson et al., 2004b; Zhang et al., 2000). […]

[2] = system: Stat3-dependent firefly luciferase reporter pLucTKS3; experiment: Stat3-dependent luciferase reporter assay; type: cell-based, mouse; conditions: stable NIH3T3/v-Src/pLucTKS3, 48 h
Experimental: FIGS. 3A-3D. Inhibition of Stat3-mediated gene expression by PLATINUM-401. (FIG. 3A) and (FIG. 3B) v-Src-transformed mouse fibroblasts that stably express Stat3-dependent (NIH3T3/v-Src/pLucTKS3) and Stat3-independent (NIH3T3/v-Src/pRLSRE) luciferase reporters or β-galactosidase (β-gal), as well as normal mouse fibroblast (NIH3T3) transiently transfected with pLucTKS3, pGL2-VEGF-Luc, NFkB-Luc or pLucSRE together with or without v-Src were treated with or without PLATINUM-401 for 48 h. Cytosolic extracts were then prepared from cells for luciferase and […] activities measurements. […]
Cytosolic extract preparation and luciferase assays—Cytosolic extract preparation from fibroblasts and luciferase assays were previously described (Turkson et al., 1998; Turkson et al., 1999). […] Cells were resuspended in 0.4 ml of low-salt HEPES buffer (10 mM HEPES [pH 7.8], 10 mM KCl, 0.1 mM EGTA, 0.1 mM EDTA, 1 mM phenylmethylsulfonyl fluoride (PMSF), and 1 mM dithiothreitol (DTT)) for 15 min, lysed by the addition of 20 μl of 10% Nonidet P-40 (NP-40), and centrifuged (10,000×g, 30 s, 4° C.) to obtain the cytosolic supernatant, which was used for luciferase assays (Promega) measured with a luminometer. […]
To further investigate the activities of PLATINUM-401, the inventors treated malignant cells and measured effects on Stat3 signaling. […]

inactive Stat1 monomer = biological target: T2, inactive Stat1 monomer (Homo sapiens, UniProt P42224); experiment: Inactive STAT monomer added to activated Stat3 before EMSA (titration of compound); type: binding; conditions: monomer added to activated Stat3, pre-incubated with compound 30 min
T2 construct: made in house; host or cells: Sf-9 insect cells infected with baculovirus

Cyclin D1 [3] = experiment: Cyclin D1 detection, in situ and Western blot; type: cell-based, mouse; conditions: NIH3T3/v-Src, 48 h
Experimental: as §1, §2

T1 sequence (P40763 whole entry): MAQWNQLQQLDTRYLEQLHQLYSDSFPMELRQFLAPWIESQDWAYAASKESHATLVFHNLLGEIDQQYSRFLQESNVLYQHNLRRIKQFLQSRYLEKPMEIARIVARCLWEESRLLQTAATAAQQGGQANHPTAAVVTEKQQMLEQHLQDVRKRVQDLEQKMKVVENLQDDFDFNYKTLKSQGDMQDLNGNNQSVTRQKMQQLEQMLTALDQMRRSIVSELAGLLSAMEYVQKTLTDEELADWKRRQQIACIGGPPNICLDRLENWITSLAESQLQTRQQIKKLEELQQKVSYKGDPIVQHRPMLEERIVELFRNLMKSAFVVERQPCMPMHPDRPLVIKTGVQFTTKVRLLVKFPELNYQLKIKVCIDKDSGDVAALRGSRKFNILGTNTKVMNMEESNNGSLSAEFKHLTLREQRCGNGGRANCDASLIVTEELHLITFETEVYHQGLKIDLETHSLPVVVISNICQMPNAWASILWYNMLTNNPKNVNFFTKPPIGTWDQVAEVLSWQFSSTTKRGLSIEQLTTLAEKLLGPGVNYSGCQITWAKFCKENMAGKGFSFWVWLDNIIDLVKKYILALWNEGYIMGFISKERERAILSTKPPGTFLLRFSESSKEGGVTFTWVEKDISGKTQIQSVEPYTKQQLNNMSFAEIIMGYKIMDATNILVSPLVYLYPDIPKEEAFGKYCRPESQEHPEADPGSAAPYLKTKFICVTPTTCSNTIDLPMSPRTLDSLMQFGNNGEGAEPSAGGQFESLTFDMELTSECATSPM
T2 sequence (P42224 whole entry): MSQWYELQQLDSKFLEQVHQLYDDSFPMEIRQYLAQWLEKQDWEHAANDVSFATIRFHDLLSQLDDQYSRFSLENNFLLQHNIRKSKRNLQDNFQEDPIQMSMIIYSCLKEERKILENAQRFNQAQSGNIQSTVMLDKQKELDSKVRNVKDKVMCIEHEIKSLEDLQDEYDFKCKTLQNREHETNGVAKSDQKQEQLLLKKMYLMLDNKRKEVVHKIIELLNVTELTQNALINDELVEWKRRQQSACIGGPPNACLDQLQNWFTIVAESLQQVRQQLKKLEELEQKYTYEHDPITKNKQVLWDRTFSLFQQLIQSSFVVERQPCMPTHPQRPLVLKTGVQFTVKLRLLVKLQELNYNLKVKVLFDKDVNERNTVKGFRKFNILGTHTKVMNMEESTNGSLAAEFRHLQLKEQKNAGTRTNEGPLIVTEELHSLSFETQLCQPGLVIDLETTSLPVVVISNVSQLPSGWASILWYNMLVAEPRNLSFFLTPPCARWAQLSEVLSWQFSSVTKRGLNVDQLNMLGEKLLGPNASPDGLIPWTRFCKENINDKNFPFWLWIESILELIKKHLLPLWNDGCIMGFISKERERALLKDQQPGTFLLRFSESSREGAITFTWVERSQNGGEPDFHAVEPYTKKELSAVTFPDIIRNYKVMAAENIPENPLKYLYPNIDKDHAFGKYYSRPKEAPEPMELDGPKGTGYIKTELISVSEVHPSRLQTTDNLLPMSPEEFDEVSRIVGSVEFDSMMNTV

CC(O)CN1CCN(CC(C)O)CC1 (stereo not drawn) [PLATINUM-401]
interaction with inactive Stat3 monomer (inactive Stat3 monomer): interacts | influence of inactive Stat5 monomer on compound's effect on Stat3 DNA-binding activity (inactive Stat5 monomer): failed to significantly influence | Cyclin D1 level (Cyclin D1 [1]): significantly diminished | induction of Stat3-dependent reporter [2]: strongly suppresses | interaction with inactive Stat1 monomer (inactive Stat1 monomer): also interacts | Cyclin D1 level (Cyclin D1 [3]): significantly diminished

— patent US11571418B2, “Platinum compounds that inhibit constitutive STAT3 signaling and induce cell cycle arrest and apoptosis of malignant cells” (H. LEE MOFFITT CANCER CENTER AND RESEARCH INSTITUTE, INC., priority 2011, dated 2023)
